Source: publication PMC9283466, “In silico identification of two peptides with antibacterial activity against multidrug-resistant Staphylococcus aureus” (NPJ Biofilms and Microbiomes, 2022)
Converted amounts (≈) assume the structure as drawn. Bridge positions count the residues as written; N and C are the ends. Peptide text beside a SMILES is read from it.

Columns and labels:
[1] = Peptide-lipid interaction and insertion, lipid monolayer; assay type: binding, S. aureus; details: LTA; for Speed of insertion: initial surface pressure 30+/-0.5 mN/m; for Critical pressure of insertion πc: peptide 1 µg/mL
Method: (§1) Peptide–lipid interaction was measured using a lipid monolayer formed at the air:water interface with total lipid extracts and pure lipids. Total lipids were extracted from overnight cultures of MRSA or human erythrocytes using the Folch extraction procedure[14],[40]. Extracted total lipids were dried, re-solubilised in chloroform:methanol (2:1, v/v) and stored at −20 °C under nitrogen. Pure prokaryotic and eukaryotic lipids used were: cardiolipin, POPC (1-palmitoyl-2-oleoyl-glycero-3-phosphocholine), POPE (1-palmitoyl-2-oleoyl-sn-glycero-3-phosphoethanolamine) and POPG (1-palmitoyl-2-oleoyl-sn-glycero-3-phospho-(1’-rac-glycerol) (Avanti Polar Lipid). LTA (Lipoteichoic acid from S. aureus) and LPS (lipopolysaccharide from E. coli) (Invitrogen, UK) were also tested. Pure lipids were reconstituted in chloroform:methanol (2:1 v/v) at 1 mg/ml and stored at −20 °C under nitrogen. For peptide–lipid interaction assay, lipid monolayers at the air:water interface were formed by spreading total lipid extract or pure lipids at the surface of 800 µl of sterile PBS using a 50 µl Hamilton’s syringe. Lipids were added until the surface pressure reached the desired value. After 5–10 min of incubation allowing the evaporation of the solvent and stabilisation of the initial surface pressure, 8 µl of HG2 or HG4 diluted in sterile PBS at 100 µg/ml were injected into the 800 µl sub-phase of PBS under the lipid monolayer (pH 7.4, volume 800 µl) using a 10 µl Hamilton’s syringe giving a final concentration of peptide of 1 µg/ml, as preliminary experiments had shown that this concentration was optimal. The variation of the surface pressure caused by peptide insertion was then continuously monitored using a fully automated microtensiometer (µTROUGH SX, Kibron Inc, Finland) until it reached equilibrium (maximal surface pressure increase is usually obtained after 15–25 min). To reflect physiological situations, the initial surface pressure was fixed at 30 ± 0.5 mN/m in some experiments as this value corresponds to a lipid packing density theoretically equivalent to that of the outer leaflet of the eukaryotic and prokaryotic cell membrane. In other experiments, the critical pressure of insertion of HG2 or HG4 in the total lipid extracts and pure lipids was measured as follows[14],[56]. Briefly, in these experiments, the initial pressure of the lipid monolayer was set up at different values (between 10 and 30 mN/m) and the variation of pressure caused by the injection of the peptide was measured. […] All experiments were carried out in a controlled atmosphere at 20 ± 1 °C and data were analyzed using the Firmware 2.5 programme (Kibron Inc.). The accuracy of the system under our experimental conditions was determined to be ±0.25 mN/m for surface pressure measurements.

G. mellonella larvae = tested on: G. mellonella larvae; parameters: species or system Galleria mellonella; details: in vivo
Method: (§2) All procedures of larvae rearing, injection and G. mellonella killing assays were conducted using validated methods. In each assay, ten larvae weighing between 280–300 mg each were randomly selected. Larvae with the previous melanisation of the cuticle were excluded from the experiments. All experiments were designed in at least four experimental and biological replicates.
Firstly, we evaluated the putative toxic effect of the peptides HG2 and HG4 in G. mellonella. […] After injection with peptides, the larvae were maintained at 37 °C in the dark. Phenotypic aspects such as melanisation and mobility of the larvae as well as survival were monitored every 24 for 96 h. Larvae not inoculated with AMPs were used as controls.

[2] = Peptide-lipid interaction and insertion, lipid monolayer; assay type: binding; details: for Speed of insertion: initial surface pressure 30+/-0.5 mN/m; for Critical pressure of insertion πc: peptide 1 µg/mL
Method: as §1

[3] = tested on: MRSA USA300 infection in G. mellonella; assay: In vivo efficacy, G. mellonella MRSA USA300 infection model; parameters: species or system Galleria mellonella; details: MRSA USA300 LD; for survival rate higher than the control group: peptides at 1x MIC; for increase in survival versus untreated control group / survival rate: peptides at 3x MIC
Method: as §2
To determine the LD50 and LD of S. aureus MRSA USA300 in G. mellonella, an inoculum of 10 µl of MRSA USA300 suspension in PBS 1X (10^3 to 10^6 CFU/larvae) was injected into the larvae haemocoel using insulin syringes (Becton Dickinson, USA). Larvae inoculated with PBS and larvae not inoculated were used as negative controls.
The efficacy of the peptides HG2 and HG4 to control MRSA USA300 infection in vivo, was evaluated following the protocol by ref. [43]. The groups of G. mellonella larvae were infected with the predetermined lethal dose of MRSA USA300. After 30 min of the larvae injection with the bacteria, the peptides were injected at 1x MIC and 3x MIC concentrations respectively. Larvae injected with PBS solution, and HG2 or HG4 peptide solution (1x MIC or 3x MIC) alone were used as negative controls. Injected larvae were maintained at 37 °C in the dark and their survival was monitored and analyzed as above.

P. aeruginosa (CF) C3719 = assay: microbe, parasite or virus in culture; assay type: cell-based, Pseudomonas aeruginosa; details: CF) C3719
Method: (§3) To determine the antimicrobial activity of the new antimicrobial peptides, HG2 and HG4, their minimum inhibitory concentrations (MICs) were determined by broth microdilution method[51] in cation adjusted Mueller Hinton broth (MHB) following the International Organisation for Standardisation (ISO) 20776-1 standard for MIC testing using a final bacterial inoculum of 5 × 10^5 CFU/ml[52]. […] The peptides dissolved in sterile distilled water were added to bacteria culture and incubated overnight at appropriate conditions. The MICs of the peptides and comparator antibiotics were recorded after 18–24 h. The minimum bactericidal concentrations (MBCs) were also determined and were taken as the lowest concentration of the antimicrobial that prevented the growth of bacterial cells after the subculture of cells (from MIC treatment) onto antibiotic-free media.

[4] = tested on: P. aeruginosa (CF) AMT0060; assay: microbe, parasite or virus in culture; assay type: cell-based, Pseudomonas aeruginosa; details: CF) AMT0060
Method: as §3

P. aeruginosa PA01 = assay: microbe, parasite or virus in culture; assay type: cell-based, Pseudomonas aeruginosa
Method: as §3

[5] = tested on: P. aeruginosa (CF) LES400; assay: microbe, parasite or virus in culture; assay type: cell-based, Pseudomonas aeruginosa; details: CF) LES400
Method: as §3

[6] = Peptide-lipid interaction and insertion, lipid monolayer; assay type: binding, E. coli; details: LPS; for Speed of insertion: initial surface pressure 30+/-0.5 mN/m; for Critical pressure of insertion πc: peptide 1 µg/mL
Method: as §1

Row | Compound | Speed of insertion [1] | Critical pressure of insertion πc [1] | larvae survival rate, uninfected larvae (G. mellonella larvae) | toxic effect in G. mellonella (G. mellonella larvae) | Speed of insertion ([2]; Cardiolipin) | Critical pressure of insertion πc ([2]; Cardiolipin) | Speed of insertion ([2]; PC) | Critical pressure of insertion πc ([2]; PC) | Speed of insertion ([2]; PE) | Critical pressure of insertion πc ([2]; PE) | Speed of insertion ([2]; PG) | Critical pressure of insertion πc ([2]; PG) | survival rate higher than the control group [3] | increase in survival versus untreated control group [3] | survival rate [3] | MIC (P. aeruginosa (CF) C3719) | MIC [4] | MIC (P. aeruginosa PA01) | MIC [5] | Speed of insertion [6] | also measured
1 | CC[C@H](C)[C@H](NC(=O)[C@H](CC(C)C)NC(=O)[C@H](CC(C)C)NC(=O)[C@H](CC(C)C)NC(=O)[C@H](CCCCN)NC(=O)[C@H](CCCCN)NC(=O)[C@@H](N)CCSC)C(=O)N[C@@H](CC(C)C)C(=O)N[C@@H](Cc1ccccc1)C(=O)N[C@H]1CSSC[C@@H](C(=O)N[C@@H](CCCCN)C(=O)N[C@@H](CCCCN)C(=O)N[C@@H](C)C(=O)N2CCC[C@H]2C(N)=O)NC(=O)CNC(=O)[C@H](C)NC(=O)[C@H](CC(C)C)NC(=O)[C@H](C)NC(=O)[C@H](CC(C)C)NC(=O)[C@H](C)NC(=O)[C@H](CC(C)C)NC1=O [HG2] (H-MKKLLLILFCLALALAGCKKAP-NH2; disulfide 10-18; N-terminus assumed) | 0.80 mN/m/10 sec | 47.81 mN/m | 100% | no toxic effect | 4.74 mN/m/10 sec | 41.30 mN/m | 8.58 mN/m/10 sec | 62.79 mN/m | 1.89 mN/m/10 sec | 39.49 mN/m | 3.70 mN/m/10 sec | 51.19 mN/m | ~ 20% | 4.6 fold | 78% | 64 µg/mL (≈ 27.2 µM) | 256 µg/mL (≈ 109 µM) | >512 µg/mL | 64 µg/mL (≈ 27.2 µM) | 0.43 mN/m/10 sec | Critical pressure of insertion πc [6]: 36.03 mN/m
2 | CC[C@H](C)[C@H](NC(=O)[C@H](CC(C)C)NC(=O)[C@H](CC(C)C)NC(=O)[C@H](C)NC(=O)CNC(=O)CNC(=O)[C@@H](NC(=O)[C@@H](NC(=O)[C@H](CC(C)C)NC(=O)[C@H](C)NC(=O)[C@H](CC(C)C)NC(=O)CNC(=O)[C@H](CC(C)C)NC(=O)[C@@H](N)C(C)C)[C@@H](C)CC)C(C)C)C(=O)N[C@@H](CCCCN)C(=O)N[C@@H](CCCCN)C(=O)N[C@@H](CCCCN)C(=O)N[C@@H](CCC(N)=O)C(=O)N[C@@H](C)C(=O)N[C@@H](CCCCN)C(=O)N[C@@H](CO)C(N)=O [HG4] (H-VLGLALIVGGALLIKKKQAKS-NH2; N-terminus and C-terminus assumed) | 0.39 mN/m/10 sec | 40.04 mN/m | 100% | no toxic effect | 2.44 mN/m/10 sec | 46.49 mN/m | 0.50 mN/m/10 sec | 28.8 mN/m | 0.20 mN/m/10 sec | 33.9 mN/m | 2.48 mN/m/10 sec | 47.55 mN/m | ~ 20% | 4.4 fold | 75% | 128 µg/mL (≈ 60.4 µM) | 256 µg/mL (≈ 121 µM) | >512 µg/mL | 128 µg/mL (≈ 60.4 µM) | 0.31 mN/m/10 sec | Critical pressure of insertion πc [6]: 34.08 mN/m
